# Experimental data as given in patent US20230304058A1, “NOVEL 5'CAP ANALOG HAVING CAP2 STRUCTURE AND PREPARATION METHOD THEREFOR” (Shenzhen Rhegen Biotechnology Co., Ltd., priority 2020, published 2023).
# Columns and labels:
# [1] = background; cited from earlier work
# [2] = tested on: TLR3, TLR7, TLR8 and RIG-1; assay: Intracellular immunogenicity of capped mRNA by RNA immunoprecipitation and quantitative PCR; format: cell-based; conditions: relative to ARCA; Human-derived PBMC cells, 5 μg mRNA, Lipofectamine 2000, 24 h
# Experimental: Experimental methods: the intracellular immunoproteins TLR3, TLR7, TLR8 and RIG-1 were immunoprecipitated together with their bound RNAs by RNA immunoprecipitation, and finally these mRNAs were identified by real-time quantitative PCR, and their relative abundance was proportional to their immunogenicity.
# The cells were collected by trypsin digestion 24 h later and resuspended in PBS, centrifuged, and collected.
# Fixative was added to the cells, and after 15 minutes glycine was added for termination of fixation, followed by centrifugation to collect the cells. Cells were resuspended by adding lysate, incubated on ice at 4° C. for 30 min, centrifuged at 2400 g for 10 min, and the supernatant was collected.
# TLR3, TLR7, TLR8 and RIG-1 antibodies (2-10 μg) were added to the supernatant (6-10 mg) followed by gentle incubation at 4° C. for 2 hours. Protein AIG beads (40 μL) were then added to them and incubated gently for 1 h at 4° C.
# Centrifuge at 2500 rpm for 30 seconds with precipitated magnetic beads and remove the supernatant. Resuspend the beads in 500 μL of RIP buffer. Wash in RIP buffer a total of three times, followed by one wash in PBS.
# Resuspend magnetic beads in TRIzol RNA Extraction Reagent (1 mL) and isolate co-precipitated RNA, and then elute RNA using nuclease-free water (20 μL).
# 6. Reverse transcribe (RT) the RNA into cDNA and design primers according to the mRNA sequence for quantitative PCR analysis. mRNA immunogenicity is proportional to the number of mRNA copies precipitated by magnetic beads.
# T7 Enzyme Mix [3] = target: T1, T7 Enzyme Mix (Escherichia phage T7, UniProt P00573); conditions: background, co-transcriptional capping; cited from earlier work
# mRNA [4] = conditions: background, co-transcriptional capping; cited from earlier work
# T7 Enzyme Mix [5] = target: T1, T7 Enzyme Mix; assay: In vitro transcription mRNA synthesis with cap analog, reaction yield; format: biochemical; conditions: per ml transcription reaction system; 37° C. for 6 h; LiCl purification
# Experimental: 1. Before synthesizing mRNA, linearize the plasmid with Notl, digested at […] overnight;
# 2. Extract with DNA template;
# React at 37° C. for 6 h. Digest with TURBO DNase for 15 min.
# 4. Purify the transcription products using LiCl solution and calculate the reaction yields.
# mRNA [6] = assay: mRNA capping rate by RNase H cleavage and LC-MS; format: biochemical; conditions: ratio of capped and uncapped mRNA
# Text: The mRNA molecules with different Cap structures obtained in Example 1 were subjected to enzymatic cleavage, and the ratio of capped and uncapped mRNA molecules could be determined in a liquid chromatography-mass spectrometry analysis experiment.
# 1. Concentrate the beads using a magnet, aspirate the supernatant storage solution, and add an equal volume of 0.1 M NaOH +0.05 M NaCl;
# 2. Aspirate the supernatant and resuspend the beads with an equal volume of 0.1 M NaCl, keep the concentration constant;
# 3. Anneal mRNA and cleavage tags, configure the following reaction system;
# Gradient annealing: 95° C. 5 min
# 4. Combining cleavage tags with beads • Beads were centrifuged at 15,000 g for 5 min, and the supernatant was removed, then 120 μl of annealed mRNA and tags were added and incubated for 30 min at room temperature, during which time they were gently shaken to ensure adequate binding.
# 5. Enzyme cleavage using RNase H; • Add 10 μl RNase H and incubate at 37° C. for 3 h. Precipitate the beads with magnet and discard the supernatant. • Add 100 μl washing buffer, mix thoroughly, magnet precipitate for 2 min, and discard the supernatant. Repeat 3 times. • Wash with DI water for 3 times.
# 6. Hydrolysis with RppH; • Use 10 units RppH in nebuffer 2 to hydrolyze at room temperature for 1 h.
# DI water was aspirated, 100 μl of 75% ethanol preheated to 80° C. was added, incubat for 3 min, and magnet precipitat for 3 min. The supernatant was taken, followed by evaporating, and centrifuge for 45 min to a volume of 10 μl. Finally, the sample was resuspended in 50 μl of […] EDTA/1% MeOH and left for LC-MS analysis.
# 9. the mRNA capping rate of different Cap analogs synthesized was analyzed with LC-MS.
# T1 sequence (P00573 whole entry): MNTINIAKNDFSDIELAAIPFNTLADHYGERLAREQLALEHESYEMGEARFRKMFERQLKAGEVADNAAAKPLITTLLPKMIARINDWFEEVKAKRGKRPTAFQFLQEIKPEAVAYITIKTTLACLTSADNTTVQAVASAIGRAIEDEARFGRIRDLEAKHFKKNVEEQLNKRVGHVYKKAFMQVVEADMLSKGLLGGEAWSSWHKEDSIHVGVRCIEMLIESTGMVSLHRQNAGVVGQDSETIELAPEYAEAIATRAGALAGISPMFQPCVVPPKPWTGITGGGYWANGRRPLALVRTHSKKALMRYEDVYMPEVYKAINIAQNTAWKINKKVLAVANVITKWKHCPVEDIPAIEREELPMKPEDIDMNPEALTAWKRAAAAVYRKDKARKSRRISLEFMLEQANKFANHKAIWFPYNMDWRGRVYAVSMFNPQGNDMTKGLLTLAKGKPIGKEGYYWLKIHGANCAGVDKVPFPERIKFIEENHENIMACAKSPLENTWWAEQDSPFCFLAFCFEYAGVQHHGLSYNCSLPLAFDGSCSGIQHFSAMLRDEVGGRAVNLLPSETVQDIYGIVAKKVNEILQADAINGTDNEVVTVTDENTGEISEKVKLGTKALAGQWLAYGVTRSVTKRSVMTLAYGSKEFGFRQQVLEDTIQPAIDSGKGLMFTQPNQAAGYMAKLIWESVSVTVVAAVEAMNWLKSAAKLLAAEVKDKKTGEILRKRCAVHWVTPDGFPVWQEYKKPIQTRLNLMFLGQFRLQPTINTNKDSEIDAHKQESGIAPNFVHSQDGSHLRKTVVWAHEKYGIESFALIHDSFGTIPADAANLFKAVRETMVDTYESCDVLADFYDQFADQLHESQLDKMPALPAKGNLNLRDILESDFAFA
structure (smiles),measurement,setting,value
CO[C@H]1[C@@H](O)[C@H](n2c[n+](C)c3c(=O)[nH]c(N)nc32)O[C@@H]1COP(=O)(O)OP(=O)(O)OP(=O)(O)OC[C@H]1O[C@@H](n2cnc3c(=O)[nH]c(N)nc32)[C@H](O)[C@@H]1O [ARCA],immunogenicity of transcribed product,[1],highly immunogenic
same,Intracellular immunogenicity of mRNA when using different Cap structures,[2],1
same,RNA prepared per ml of transcription reaction system,T7 Enzyme Mix [3],≤ 1.5 mg
same,capping efficiency,mRNA [4],70%
"CO[C@@H]1[C@H](O)[C@@H](COP(=O)(O)O[C@H]2[C@@H](OC)[C@H](n3ccc(N)nc3=O)O[C@@H]2COP(=O)(O)OP(=O)(O)OP(=O)([O-])OC[C@H]2O[C@@H](n3c[n+](C)c4c(=O)[nH]c(N)nc43)[C@H](O)[C@@H]2OC)O[C@H]1n1ccc(N)nc1=O [Cap analog 27, 3-O-Me-m7G(5′)ppp(5′)(2′OMeC)p(2′OMeC)]",Mass of final product obtained from 1 ml mRNA synthesis reaction system,T7 Enzyme Mix [5],4.7 mg
same,mRNA capping rates when using different Cap structures,mRNA [6],94.88%
same,Intracellular immunogenicity of mRNA when using different Cap structures,[2],0.09
"CO[C@@H]1[C@H](O)[C@@H](COP(=O)(O)O[C@H]2[C@@H](OC)[C@H](n3ccc(=O)[nH]c3=O)O[C@@H]2COP(=O)(O)OP(=O)(O)OP(=O)([O-])OC[C@H]2O[C@@H](n3c[n+](C)c4c(=O)[nH]c(N)nc43)[C@H](O)[C@@H]2OC)O[C@H]1n1ccc(N)nc1=O [Cap analog 28, 3-O-Me-m7G(5′)ppp(5′)(2′OMeU)p(2′OMeC)]",Mass of final product obtained from 1 ml mRNA synthesis reaction system,T7 Enzyme Mix [5],4.8 mg
same,mRNA capping rates when using different Cap structures,mRNA [6],94.62%
same,Intracellular immunogenicity of mRNA when using different Cap structures,[2],0.52
"CO[C@@H]1[C@H](O)[C@@H](COP(=O)(O)O[C@H]2[C@@H](OC)[C@H](n3cnc4c(N)ncnc43)O[C@@H]2COP(=O)(O)OP(=O)(O)OP(=O)([O-])OC[C@H]2O[C@@H](n3c[n+](C)c4c(=O)[nH]c(N)nc43)[C@H](O)[C@@H]2OC)O[C@H]1n1ccc(=O)[nH]c1=O [Cap analog 29, 3-O-Me-m7G(5′)ppp(5′)(2′OMeA)p(2′OMeU)]",Mass of final product obtained from 1 ml mRNA synthesis reaction system,T7 Enzyme Mix [5],5.3 mg
same,mRNA capping rates when using different Cap structures,mRNA [6],94.93%
same,Intracellular immunogenicity of mRNA when using different Cap structures,[2],0.27
"CO[C@@H]1[C@H](O)[C@@H](COP(=O)(O)O[C@H]2[C@@H](OC)[C@H](n3cnc4c(=O)[nH]c(N)nc43)O[C@@H]2COP(=O)(O)OP(=O)(O)OP(=O)([O-])OC[C@H]2O[C@@H](n3c[n+](C)c4c(=O)[nH]c(N)nc43)[C@H](O)[C@@H]2OC)O[C@H]1n1ccc(=O)[nH]c1=O [Cap analog 30, 3-O-Me-m7G(5′)ppp(5′)(2′OMeG)p(2′OMeU)]",Mass of final product obtained from 1 ml mRNA synthesis reaction system,T7 Enzyme Mix [5],5.3 mg
same,mRNA capping rates when using different Cap structures,mRNA [6],94.8%
same,Intracellular immunogenicity of mRNA when using different Cap structures,[2],0.31
"CO[C@@H]1[C@H](O)[C@@H](COP(=O)(O)O[C@H]2[C@@H](OC)[C@H](n3ccc(N)nc3=O)O[C@@H]2COP(=O)(O)OP(=O)(O)OP(=O)([O-])OC[C@H]2O[C@@H](n3c[n+](C)c4c(=O)[nH]c(N)nc43)[C@H](O)[C@@H]2OC)O[C@H]1n1ccc(=O)[nH]c1=O [Cap analog 31, 3-O-Me-m7G(5′)ppp(5′)(2′OMeC)p(2′OMeU)]",Mass of final product obtained from 1 ml mRNA synthesis reaction system,T7 Enzyme Mix [5],4.5 mg
same,mRNA capping rates when using different Cap structures,mRNA [6],94.7%
same,Intracellular immunogenicity of mRNA when using different Cap structures,[2],0.4
"CO[C@@H]1[C@H](O)[C@@H](COP(=O)(O)O[C@H]2[C@@H](OC)[C@H](n3ccc(=O)[nH]c3=O)O[C@@H]2COP(=O)(O)OP(=O)(O)OP(=O)([O-])OC[C@H]2O[C@@H](n3c[n+](C)c4c(=O)[nH]c(N)nc43)[C@H](O)[C@@H]2OC)O[C@H]1n1ccc(=O)[nH]c1=O [Cap analog 32, 3-O-Me-m7G(5′)ppp(5′)(2′OMeU)p(2′OMeU)]",Mass of final product obtained from 1 ml mRNA synthesis reaction system,T7 Enzyme Mix [5],4.3 mg
same,mRNA capping rates when using different Cap structures,mRNA [6],94.66%
same,Intracellular immunogenicity of mRNA when using different Cap structures,[2],0.3
COC1C(OP(=O)(O)OCC2OC(n3cnc4c(=O)[nH]c(N)nc43)C(O)C2O)C(COP(=O)(O)OP(=O)([O-])OP(=O)(O)OCC2OC(n3c[n+](C)c4c(=O)[nH]c(N)nc43)C(O)C2O)OC1n1cnc2c(N)ncnc21 (centres unmarked) [Cleancap],immunogenicity of transcribed product,[1],less immunogenic than ARCA
same,Intracellular immunogenicity of mRNA when using different Cap structures,[2],0.76
same,RNA prepared per ml of transcription reaction system,T7 Enzyme Mix [3],4 mg
same,capping efficiency,mRNA [4],90%
